According to patent US7544666B2, “NAP derivatives” (Industrial Technology Research Institute, priority 2005, dated 2009):

Experiments:
[1] = system: Caco-2 cell; test: Stability in the Caco-2 cell system; format: in vitro ADME, human; settings: 4-hour incubation in Caco-2 Transwell; relative to initial conc. = 100.00 (500 μM)
Outline: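 Compounds at 500 μM initial concentration were incubated 4 h at 37 °C in HBSS alone or on the apical side of Caco-2 monolayers (cultured 18–26 days, TEER over 350 Ω×cm^2). Apical and basolateral levels were quantified by reverse-phase HPLC at 210 nm against the initial concentration.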

[2] = Pharmacokinetics after single subcutaneous dose in rats; format: in vivo; settings: rat, 1 mg/kg subcutaneous
Procedure: A single dosage of NAP and the NAP derivative of BMEC-NAP0706 were subcutaneously administered to rats respectively, and blood samples were obtained at different time intervals. The blood samples were subjected to LC-MS/MS analysis to measure the concentration of NAP and the NAP derivative. A time-plasma concentration relationship was established and pharmacokinetic parameters were calculated. The procedures are described below.
Long Evans rats with body weight between 220 to 240 g were obtained from the National Laboratory Animal Center, Taiwan and caged in the laboratory animal housing in the Industrial Technology Research Institute, Taiwan. The Breeding procedure follows the “Guide for the Care and Use of Laboratory Animals” established by the Chinese Society of Laboratory Animal Sciences. The rats were kept on an alternating 12-hour light and 12-hour dark schedule with sufficient feed and water until they reached the body weight between 280 to 300 g.
Each rat was weighed before the pharmacokinetic examination to estimate its own dosage. The tested drug dissolved in PBS was formulated to achieve the amount of one dosage between 0.28 to 0.32 mL. Each rat was subcutaneously administered with 1 mg/kg of the tested drug. 0.3 mL of blood samples were collected from the saphenous vein in medial thigh of the rat before and 0.25-, 0.5-, 0.75-, 1-, 2-, 4-, 24-hour after administration. Whole blood was centrifuged under 3500 rpm for 10 min and supernatant (serum) was moved to a clean 1.5 mL eppendorf and stored at −80° C.
Sample pretreatment was as follows: The frozen serum was thawed in an ice bath. One hundred μL of the serum was moved to a clean 1.5 mL eppendorf and 10 μL of internal standard material was added. The mixture was added with 200 μL ACN and mixed again. The sample was centrifuged under 14000 rpm at 4° C. for 10 min, and the supernatant was moved to the other clean eppendorf and dried in a vacuum system at 60° C. for 30 min. The dried sample was dissolved in 900 μL ddH2O. The sample was added to a solid phase extraction column previously activated with methanol and ddH2O. After the sample passed through, the extraction column was washed with ddH2O alone and then ddH2O containing 5% ACN and 0.1% TFA. The sample was dissolved from the extraction column with ACN containing 0.1% TFA and dried under a vacuum system at 60° C. for 1 hour. The dried sample was redissolved with 100 μL of ddH2O containing 50% ACN. The sample was analyzed with HPLC-MS/MS system.
The sample analysis was as described below. 20 μL of the sample was poured into the HPLC-MS/MS system. The solvent system was applied in gradient partitioning: 90% A (H2O/ACN=98/2, 0.1% F.A.) and 10% B (H2O/ACN=20/80, 0.1% F.A.) at 0-3 min; 10% A and 90% B at 3-6.5 min; 90% A and 10% B again at 6.5-15 min. The flow rate was 0.2 mL/min. The column was ZORBAX C18, 5 μm, 2.1×50 mm (Agilent) and the detector was ABI 4000 Q Trap. Each sample was analyzed for 15 min. The results were compared with the standard calibration curve to estimate the concentration of each sample. All data was statistically analyzed with Excel or WinNonlin.

Conc. after 4-hour in Caco-2 cells [1]: 42.49
AUC ([2]; in vivo, sc): 55.8 ng·h/mL
Cmax ([2]; in vivo, sc): 55.5 ng/mL
Tmax ([2]; in vivo, sc): 15 min
half-life ([2]; in vivo, sc, read-out: T½ (converted)): 51 min
TNAP-max [2]: 0.25 h
time required to reach the highest concentration [2]: 0.25 h
Compound: CC[C@H](C)[C@H](NC(=O)[C@H](CO)NC(=O)[C@@H](NC(=O)[C@@H]1CCCN1C(=O)[C@H](C)NC(=O)[C@@H](N)CC(N)=O)C(C)C)C(=O)N1CCC[C@H]1C(=O)N[C@@H](CCC(N)=O)C(=O)O [BMEC-NAP, H-NAPVSIPQ-OH, reference compound]
